Measured values reported in BindingDB's records for patent US20240109930 (Idorsia Pharmaceuticals, 2024).

Key:
Galectin-3 = Galectin-3 (Homo sapiens, UniProt P17931); experiment: Inhibitory Activity Assay
Description: (§1) Briefly, compounds are serially diluted in DMSO (working dilutions). ASF-coated 384well plates are supplemented with 22.8 μL/well of biotinylated hGal-3 or hGal-1 in assay buffer (i.e. 300-1000 ng/mL biotinylated hGal-3 or hGal-1) to which 1.2 μL of compound working dilutions are added and mixed. Plates are incubated for 3 hours at 4° C., then washed with cold assay buffer (3×50 uL), incubated for 1 hour with 25 μL/well of a streptavidin-peroxidase solution (diluted in assay buffer to 80 ng/mL) at 4° C., followed by further washing steps with assay buffer (3×50 uL). Finally, 25 μL/well of ABTS substrate is added.

Galectin-1 = Galectin-1 (Homo sapiens, UniProt P09382); experiment: Inhibitory Activity Assay
Description: as §1

Chain of Galectin-3 (P17931 whole entry): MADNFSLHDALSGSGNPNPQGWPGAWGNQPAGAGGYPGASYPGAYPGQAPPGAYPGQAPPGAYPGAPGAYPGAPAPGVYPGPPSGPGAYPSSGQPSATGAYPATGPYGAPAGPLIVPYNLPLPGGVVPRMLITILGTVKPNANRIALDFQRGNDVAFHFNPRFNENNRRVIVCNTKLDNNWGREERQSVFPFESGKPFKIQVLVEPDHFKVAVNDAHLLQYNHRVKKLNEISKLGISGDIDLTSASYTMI
Chain of Galectin-1 (P09382 whole entry): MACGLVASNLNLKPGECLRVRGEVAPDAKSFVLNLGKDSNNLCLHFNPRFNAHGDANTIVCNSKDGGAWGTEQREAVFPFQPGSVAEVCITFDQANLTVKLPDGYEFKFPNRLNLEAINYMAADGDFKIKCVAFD

SMILES | IC50 (Galectin-3) | IC50 (Galectin-1)
COC(=O)C(C)(C)n1cc(C[C@H]2OC(CO)=C(O)C(N3C[C@H](c4ccc(C)c(F)c4F)NN3)=C2OC)nn1 [US20240109930, Example 1.1.10.] | 60 nM | 4370 nM
COC(=O)C(C)(C)n1cc(C[C@H]2OC(CO)=C(O)C(N3C[C@H](c4ccc(Cl)c(F)c4F)NN3)=C2OC)nn1 [US20240109930, Example 2.1.10.] | 60 nM | 2260 nM
CO[C@@H]1[C@@H](n2cc(-c3ccc(Cl)c(F)c3F)nn2)[C@@H](O)[C@@H](CO)O[C@@H]1Cn1cc(C2(CF)CC2)nn1 [US20240109930, Example 2.2.46.] | 60 nM | 2300 nM
CO[C@@H]1[C@@H](n2cc(-c3ccc(Cl)c(F)c3F)nn2)[C@@H](O)[C@@H](CO)O[C@@H]1Cn1cc([C@H]2C[C@@H](NC(=O)OC(C)(C)C)C2)nn1 [US20240109930, Example 2.2.86.] | 60 nM | 2570 nM

Compounds with a lower IC50 (Galectin-3), results first:

IC50 (Galectin-3) | IC50 (Galectin-1) | SMILES
50 nM |  | CO[C@@H]1[C@@H](n2cc(-c3ccc(Cl)c(F)c3F)nn2)[C@@H](O)[C@@H](CO)O[C@@H]1Cc1cn([C@@H]2CC[C@H]2F)nn1 [US20240109930, Example 2.1.88.C]
30 nM |  | CO[C@@H]1[C@@H](n2cc(-c3ccc(Cl)c(F)c3F)nn2)[C@@H](O)[C@@H](CO)O[C@@H]1Cc1cn(C2COCCC2(F)F)nn1 (some centres undefined) [US20240109930, Example 2.1.73.A]
30 nM | 1400 nM | CCC1(c2cn(C[C@H]3O[C@H](CO)[C@H](O)[C@H](n4cc(-c5ccc(Cl)c(F)c5F)nn4)[C@H]3OC)nn2)COC1 [US20240109930, Example 2.2.38.]
30 nM | 1320 nM | COC1=C(n2cc(-c3ccc(C#N)c(F)c3F)nn2)C(O)=C(CO)O[C@@H]1C[C@H]1CN(C2(C(F)F)CCC2)NN1 [US20240109930, Example 5.1.43.]
